Experimental data published in paper PMC11571207, “Stereorandomized Oncocins with Preserved Ribosome Binding and Antibacterial Activity” (Journal of Medicinal Chemistry, 2024).
≈ marks a conversion by molar mass, not a printed value. Non-standard residues stand in square brackets, D forms with d. Residues, ends and D or L forms follow the SMILES beside them.

Assays:
A. baumannii ATCC19606 = assay: microbe, parasite or virus in culture; conditions: for MIC A. baumannii, 12.5% MHB / MIC A. baumannii, Full MHB: A. baumannii ATCC19606, 16–20 h at 37 °C; for MIC A. baumannii, 12.5% MHB: 12.5% Müller–Hinton medium; for MIC A. baumannii, Full MHB: full Müller–Hinton medium; for MIC A. baumannii ATCC19606: supplement CSV
From the text: (§1) We tested antibacterial effects against the Gram-negative bacteria Escherichia coli, Klebsiella pneumoniae, Pseudomonas aeruginosa, and Acinetobacter baumannii and the Gram-positive methicillin-resistant Staphylococcus aureus (MRSA).
(§2) Bacterial growth assay (Figure S1), transmission electron microscopy (Figure S6), serum stability assay (Figure S7), circular dichroism spectral recording (Figures S8 and S9), antimicrobial and hemolysis activity assays (MIC and MHC), and vesicle leakage assay were carried out as described in earlier publications.[43],[44]
(§3) Minimum inhibitory concentration assay
(§4) Antimicrobial activity was assayed against P. aeruginosa PAO1, K. pneumoniae NCTC418, E. coli W3110, A. baumannii ATCC 19606, methicillin-resistant S. aureus COL (MRSA), and for selected peptides on P. aeruginosa PA14 and the polymyxin-B-resistant derivative PA14 2P4, as well as the clinical isolates ZEM-1A and ZEM9A, K. pneumoniae OXA-48, S. aureus Newman, Enterobacter cloacae and Burkholderia cenocepacia. The minimal inhibitory concentration (MIC) was determined by using broth microdilution method. A colo ny of bacteria was picked and grown in Luria-Bertani (LB) medium overnight at 37°C. For E. coli BW25113 sbmA::kan the medium was supplemented with 25 mg/L of kanamycin. The next day, the culture was then regrown in LB medium to log phase (OD600 = 0.6 to 0.8), which lasted approximately 4 h, and diluted to an OD600 of 0.022 in the desired medium. Stock solutions of 1 mg/mL of the samples were prepared in sterilized milliQ water and diluted to the beginning concentration of 64 μg/mL in 300 μL Mueller Hinton (MH)-medium. The diluted samples were added to first well of 96-well microtiter plate (TPP, untreated, Faust Laborbedarf, AG, Schaffhausen) and diluted serially by ½. Finally, 4 μL of the bacterial suspension was inoculated into the sample solutions (150 μL/well) with a final inoculation of about 5∙10^5 CFU/mL. The plates were then incubated at 37°C for 15-18h. For each assay, sterility (broth only) and growth control (broth with bacterial inoculum, without antibiotics) were checked with two columns in the plate. The next day, 15 μL of 3-(4,5-dimethylthiazol-2-yl)-2,5-diphenyltetrazolium bromide (MTT) was added to each well of the plate, such a way that MIC was defined as the lowest concentration of the peptide that inhibited visible growth of the tested

E. coli W3110 = assay: microbe, parasite or virus in culture; conditions: for MIC E. coli, 12.5% MHB / MIC E. coli, Full MHB: E. coli W3110, 16–20 h at 37 °C, broth microdilution; for MIC E. coli, 12.5% MHB: 12.5% Müller–Hinton medium; for MIC E. coli, Full MHB: full Müller–Hinton medium; for MIC E. coli W3110: supplement CSV
From the text: as §1, §2, §3, §4

K. pneumoniae NCTC 418 = assay: microbe, parasite or virus in culture; conditions: for MIC K. pneumoniae, 12.5% MHB / MIC K. pneumoniae, Full MHB: K. pneumoniae NCTC 418, 16–20 h at 37 °C; for MIC K. pneumoniae, 12.5% MHB: 12.5% Müller–Hinton medium; for MIC K. pneumoniae, Full MHB: full Müller–Hinton medium; for MIC K. pneumoniae NCTC418: supplement CSV
From the text: as §1, §2, §3, §4

P. aeruginosa PAO1 = assay: microbe, parasite or virus in culture; conditions: for MIC P. aeruginosa, 12.5% MHB / MIC P. aeruginosa, Full MHB: P. aeruginosa PAO1, 16–20 h at 37 °C; for MIC P. aeruginosa, 12.5% MHB: 12.5% Müller–Hinton medium; for MIC P. aeruginosa, Full MHB: full Müller–Hinton medium; for MIC P. aeruginosa PAO1: supplement CSV
From the text: as §1, §2, §3, §4

S. aureus COL (MRSA) = assay: microbe, parasite or virus in culture; conditions: for MIC S. aureus, 12.5% MHB / MIC S. aureus, Full MHB: S. aureus COL (MRSA), 16–20 h at 37 °C; for MIC S. aureus, 12.5% MHB: 12.5% Müller–Hinton medium; for MIC S. aureus, Full MHB: full Müller–Hinton medium; for MIC S. aureus COL (MRSA): supplement CSV
From the text: as §1, §2, §3, §4

human red blood cells = assay: Hemolysis assay, minimum hemolytic concentration; conditions: for Haemolysis on hRBC, MHC: 2.5% human red blood cells (final) in 10 mM phosphate, 150 mM NaCl, pH 7.4, 25 °C, 4 h, visual inspection; for MHC human red blood cells: supplement CSV

For `CC[C@@H](C)[C@@H](NC(=O)[C@@H](CCCNC(=N)N)NC(=O)[C@@H](CCCNC(=N)N)NC(=O)[C@H]1CCCN1C(=O)[C@H]1CCCN1C(=O)[C@H](CCCNC(=N)N)NC(=O)[C@@H]1CCCN1C(=O)[C@H](CCCNC(=N)N)NC(=O)[C@@H]1CCCN1C(=O)[C@H](CC(C)C)NC(=O)[C@H](Cc1ccc(O)cc1)NC(=O)[C@@H]1CCCN1C(=O)[C@@H]1CCCN1C(=O)[C@H](CCCCN)NC(=O)[C@H](CC(=O)O)NC(=O)[C@@H](N)C(C)C)C(=O)N[C@H](Cc1ccc(O)cc1)C(=O)N[C@H](CC(N)=O)C(=O)N[C@H](CCCNC(=N)N)C(N)=O` [D8Cterm-Onc] (H-VDKPPYLPRPR[dP][dP][dR][dR][dI][dY][dN][dR]-NH2), the “MIC A. baumannii, 12.5% MHB” value (A. baumannii ATCC19606) was 8 µg/mL (≈ 3.35 µM), the “MIC A. baumannii, Full MHB” value (A. baumannii ATCC19606) was 64 µg/mL (≈ 26.8 µM) and the “MIC A. baumannii ATCC19606” value (A. baumannii ATCC19606; 12.5% MH pH 7.4) was 8 µg/mL (≈ 3.35 µM). The “MIC A. baumannii ATCC19606” value (A. baumannii ATCC19606; full MH pH 7.4) was 64 µg/mL (≈ 26.8 µM), the “MIC E. coli, 12.5% MHB” value (E. coli W3110) was 1 µg/mL (≈ 0.418 µM) and the “MIC E. coli, Full MHB” value (E. coli W3110) was 16 µg/mL (≈ 6.69 µM). The “MIC E. coli W3110” value (E. coli W3110; 12.5% MH pH 7.4) was 1 µg/mL (≈ 0.418 µM), the “MIC E. coli W3110” value (E. coli W3110; full MH pH 7.4) was 16 µg/mL (≈ 6.69 µM) and the “MIC K. pneumoniae, 12.5% MHB” value (K. pneumoniae NCTC 418) was 2 µg/mL (≈ 0.837 µM). The “MIC K. pneumoniae, Full MHB” value (K. pneumoniae NCTC 418) was 4 µg/mL (≈ 1.67 µM), the “MIC K. pneumoniae NCTC418” value (K. pneumoniae NCTC 418; 12.5% MH pH 7.4) was 2 µg/mL (≈ 0.837 µM) and the “MIC K. pneumoniae NCTC418” value (K. pneumoniae NCTC 418; full MH pH 7.4) was 4 µg/mL (≈ 1.67 µM). For the same molecule, the “MIC P. aeruginosa, 12.5% MHB” value (P. aeruginosa PAO1) was 4 µg/mL (≈ 1.67 µM), the “MIC P. aeruginosa, Full MHB” value (P. aeruginosa PAO1) was > 64 µg/mL and the “MIC P. aeruginosa PAO1” value (P. aeruginosa PAO1; 12.5% MH pH 7.4) was 4 µg/mL (≈ 1.67 µM). For the same molecule, the “MIC P. aeruginosa PAO1” value (P. aeruginosa PAO1; full MH pH 7.4) was >64 µg/mL, the “MIC S. aureus, 12.5% MHB” value (S. aureus COL (MRSA)) was >64 / 64 μg/mL and the “MIC S. aureus, Full MHB” value (S. aureus COL (MRSA)) was >64 / 64 μg/mL. The “MIC S. aureus COL (MRSA)” value (S. aureus COL (MRSA); 12.5% MH pH 7.4) was 64 µg/mL (≈ 26.8 µM), the “MIC S. aureus COL (MRSA)” value (S. aureus COL (MRSA); full MH pH 7.4) was >64 µg/mL and the “Haemolysis on hRBC, MHC” value (human red blood cells) was >1000 µg/mL. The “MHC human red blood cells” value (human red blood cells) was >1000 µg/mL.
With `CC[C@@H](C)[C@@H](NC(=O)[C@@H](CCCNC(=N)N)NC(=O)[C@@H](CCCNC(=N)N)NC(=O)[C@H]1CCCN1C(=O)[C@H]1CCCN1C(=O)[C@@H](CCCNC(=N)N)NC(=O)[C@@H]1CCCN1C(=O)[C@H](CCCNC(=N)N)NC(=O)[C@@H]1CCCN1C(=O)[C@H](CC(C)C)NC(=O)[C@H](Cc1ccc(O)cc1)NC(=O)[C@@H]1CCCN1C(=O)[C@@H]1CCCN1C(=O)[C@H](CCCCN)NC(=O)[C@H](CC(=O)O)NC(=O)[C@@H](N)C(C)C)C(=O)N[C@H](Cc1ccc(O)cc1)C(=O)N[C@H](CC(N)=O)C(=O)N[C@H](CCCNC(=N)N)C(N)=O` [D9Cterm-Onc] (H-VDKPPYLPRP[dR][dP][dP][dR][dR][dI][dY][dN][dR]-NH2) the “MIC A. baumannii, 12.5% MHB” value (A. baumannii ATCC19606) was 4 µg/mL (≈ 1.67 µM), the “MIC A. baumannii, Full MHB” value (A. baumannii ATCC19606) was 16 µg/mL (≈ 6.69 µM) and the “MIC A. baumannii ATCC19606” value (A. baumannii ATCC19606; 12.5% MH pH 7.4) was 4 µg/mL (≈ 1.67 µM). The “MIC A. baumannii ATCC19606” value (A. baumannii ATCC19606; full MH pH 7.4) was 16 µg/mL (≈ 6.69 µM), the “MIC E. coli, 12.5% MHB” value (E. coli W3110) was 2 µg/mL (≈ 0.837 µM) and the “MIC E. coli, Full MHB” value (E. coli W3110) was 4 µg/mL (≈ 1.67 µM). For the same molecule, the “MIC E. coli W3110” value (E. coli W3110; 12.5% MH pH 7.4) was 2 µg/mL (≈ 0.837 µM), the “MIC E. coli W3110” value (E. coli W3110; full MH pH 7.4) was 4 µg/mL (≈ 1.67 µM) and the “MIC K. pneumoniae, 12.5% MHB” value (K. pneumoniae NCTC 418) was 2 µg/mL (≈ 0.837 µM). For the same molecule, the “MIC K. pneumoniae, Full MHB” value (K. pneumoniae NCTC 418) was 4 µg/mL (≈ 1.67 µM), the “MIC K. pneumoniae NCTC418” value (K. pneumoniae NCTC 418; 12.5% MH pH 7.4) was 2 µg/mL (≈ 0.837 µM) and the “MIC K. pneumoniae NCTC418” value (K. pneumoniae NCTC 418; full MH pH 7.4) was 4 µg/mL (≈ 1.67 µM). The “MIC P. aeruginosa, 12.5% MHB” value (P. aeruginosa PAO1) was 4 µg/mL (≈ 1.67 µM), the “MIC P. aeruginosa, Full MHB” value (P. aeruginosa PAO1) was 64 µg/mL (≈ 26.8 µM) and the “MIC P. aeruginosa PAO1” value (P. aeruginosa PAO1; 12.5% MH pH 7.4) was 4 µg/mL (≈ 1.67 µM). The “MIC P. aeruginosa PAO1” value (P. aeruginosa PAO1; full MH pH 7.4) was 64 µg/mL (≈ 26.8 µM), the “MIC S. aureus, 12.5% MHB” value (S. aureus COL (MRSA)) was >64 / >64 μg/mL and the “MIC S. aureus, Full MHB” value (S. aureus COL (MRSA)) was >64 / >64 μg/mL. The “MIC S. aureus COL (MRSA)” value (S. aureus COL (MRSA); 12.5% MH pH 7.4) was >64 µg/mL, the “MIC S. aureus COL (MRSA)” value (S. aureus COL (MRSA); full MH pH 7.4) was >64 µg/mL and the “Haemolysis on hRBC, MHC” value (human red blood cells) was >1000 µg/mL. For the same molecule, the “MHC human red blood cells” value (human red blood cells) was >1000 µg/mL.
